Measurements as given in patent US7169809B2, “Nitric oxide releasing prodrugs of diaryl-2-(5H)-furanones as cyclooxygenase-2 inhibitors” (Merck Frosst Company, priority 2003, dated 2007).

What was measured:
gastric erosions = assay: Gastric erosion model in rats (co-dosed with aspirin); type: in vivo, rat; conditions: Wistar rats, compared to rofecoxib dosed with aspirin, 3 hr
Description: The gastric protective effects of the combination of the present invention co-administered with aspirin may be evaluated in the following assay.
Male Wistar rats (200–250 g) were fasted for 16–18 h prior to use for experiment. Aspririn, rofecoxib in combination with aspirin (dosed separately), or test compound in combination with aspirin (dosed separately) were given on the morning of the experiment at a dosing volume of 1 ml/kg in 0.5% methocel. Three hr later, the animals were euthanized by CO2 inhalation and the stomach removed, rinsed in saline and prepared for imaging processing. Microscopic pictures of the stomach were taken using a digital camera and gastric erosions were measured using an imaging software by an observer unaware of the treatment groups. The length of gastric erosions was measured in mm and the total length of all erosions from each stomach was obtained and used as gastric damage score.
This model is also described in S. Fiorucci, et al., Gastroenterology, vol. 123, pp. 1598–1606, 2002 and M. Souza, et al., Am. J. Physiol. Gastrointest. Liver Physiol., vol. 285, pp. G54–G61, 2003.

[1] = system: carrageenan-induced rat paw edema; assay: Carrageenan-induced rat paw edema assay; type: in vivo; conditions: oral, 1 hr pretreatment, Sprague-Dawley rats, paw volume at 3 h, read-out: inhibition of carrageenan-induced edema response
Description: The carrageenan-induced rat paw edema assay is an established assay for evaluating the efficacy of conventional, non-selective NSAIDs in acute inflammation (Winter and Flataker, 1965; Mukherjee et al., 1996; Vinegar et al., 1987).
Male Sprague-Dawley rats (200–250 g) are fasted for 16–18 h prior to oral administration of either the vehicle (0.5% methocel) or test compound. One hour later, a line was drawn using a permanent marker at a level above the ankle in one hind paw to define the area of the paw to be monitored. The paw volume (V0) is measured using a plethysmometer (Ugo-Basile, Italy) based on the Archimedes principle of water displacement. The rats are then injected subplantarly with 0.05 mL of a 1% carrageenan (Sigma Chem.) solution in saline using a syringe with a 27-gauge needle (i.e. 500 μg carrageenan per paw). Three hours later, the paw volume (V3) is measured again and the increases in paw volume (V3−V0) is calculated. Paw edema is compared with the vehicle-control group and the percent inhibition calculated taking the values in the control group as 0%.

COX-2 = biological target: T1, COX-2 (Homo sapiens, UniProt P35354); assay: Human whole blood cyclooxygenase assay, COX-2 (LPS-induced PGE2 production); type: cell-based
T1 construct: Fresh blood is collected in heparinized tubes by venipuncture from healthy male volunteers; from tissue; host or cells: fresh heparinized human whole blood from healthy male volunteers, LPS-stimulated for 24 h
T1 sequence (P35354 18-604): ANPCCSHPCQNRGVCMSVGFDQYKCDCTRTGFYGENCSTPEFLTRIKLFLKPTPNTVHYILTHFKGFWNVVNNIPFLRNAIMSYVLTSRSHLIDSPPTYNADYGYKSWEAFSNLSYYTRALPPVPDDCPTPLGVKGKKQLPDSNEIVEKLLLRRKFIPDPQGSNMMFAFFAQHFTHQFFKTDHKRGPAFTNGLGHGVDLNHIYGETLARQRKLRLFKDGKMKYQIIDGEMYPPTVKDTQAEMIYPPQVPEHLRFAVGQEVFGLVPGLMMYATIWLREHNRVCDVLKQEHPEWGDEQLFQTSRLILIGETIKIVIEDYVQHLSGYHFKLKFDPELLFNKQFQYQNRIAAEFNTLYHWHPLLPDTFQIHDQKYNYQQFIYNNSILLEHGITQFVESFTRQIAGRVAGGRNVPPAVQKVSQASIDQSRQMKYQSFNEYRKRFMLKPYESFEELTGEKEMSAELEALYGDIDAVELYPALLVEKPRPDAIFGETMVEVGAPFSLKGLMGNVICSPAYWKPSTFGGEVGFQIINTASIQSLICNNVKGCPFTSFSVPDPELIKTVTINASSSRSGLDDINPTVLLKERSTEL
Description: (§1) Whole blood provides a protein and cell-rich milieu for the study of biochemical efficacy of anti-inflammatory compounds such as COX-2 inhibitors and NSAIDs. To study the inhibitory activities of these compounds on the two isoforms of cyclooxygenase (COX-1 and COX-2), human blood is either stimulated with lipopolysaccharide (LPS) for 24 hours to induce COX-2 or the blood is allowed to clot spontaneously to activate COX-1. The production of prostaglandin E2 (PGE2) and thromboxane B2 (TXB2) are measured by immunoassay at the end of the incubation as readouts of COX-2 and COX-1 activity, respectively.
(§2) Human whole blood assays for COX-1 and COX-2 activity, previously reported (Brideau et al, 1996) are performed as described below.
Fresh blood is collected in heparinized tubes by venipuncture from healthy male volunteers. These subjects have no apparent inflammatory conditions and have not taken any NSAIDs for at least 7 days prior to blood collection. The blood is initially pre-incubated with bacterial lipopolysaccharide (LPS) at 100 μg/ml (Sigma Chem, #L-2630 from E. coli, serotype 0111:B4; diluted in 0.1% w/v bovine serine albumin in phosphate buffered saline). Five minutes later, 500 μL aliquots of the LPS-treated blood aree incubated with 2 μL vehicle (DMSO) or 2 μL of test compounds in DMSO for 24 hr at 37° C. (for induction of COX-2). […]

COX-1 = biological target: T2, COX-1 (Homo sapiens, UniProt P23219); assay: Human whole blood cyclooxygenase assay, COX-1 (clotting-induced TXB2 production); type: cell-based; conditions: clotting 1 h, n=3, read-out: IC50 for inhibition of clotting-induced TXB2 level
T2 construct: Fresh blood from male or female volunteers is collected into vacutainers containing no anticoagulants; from tissue; host or cells: fresh human whole blood without anticoagulant, from male or female volunteers, allowed to clot for 1 h at 37 °C
T2 sequence (P23219 24-599): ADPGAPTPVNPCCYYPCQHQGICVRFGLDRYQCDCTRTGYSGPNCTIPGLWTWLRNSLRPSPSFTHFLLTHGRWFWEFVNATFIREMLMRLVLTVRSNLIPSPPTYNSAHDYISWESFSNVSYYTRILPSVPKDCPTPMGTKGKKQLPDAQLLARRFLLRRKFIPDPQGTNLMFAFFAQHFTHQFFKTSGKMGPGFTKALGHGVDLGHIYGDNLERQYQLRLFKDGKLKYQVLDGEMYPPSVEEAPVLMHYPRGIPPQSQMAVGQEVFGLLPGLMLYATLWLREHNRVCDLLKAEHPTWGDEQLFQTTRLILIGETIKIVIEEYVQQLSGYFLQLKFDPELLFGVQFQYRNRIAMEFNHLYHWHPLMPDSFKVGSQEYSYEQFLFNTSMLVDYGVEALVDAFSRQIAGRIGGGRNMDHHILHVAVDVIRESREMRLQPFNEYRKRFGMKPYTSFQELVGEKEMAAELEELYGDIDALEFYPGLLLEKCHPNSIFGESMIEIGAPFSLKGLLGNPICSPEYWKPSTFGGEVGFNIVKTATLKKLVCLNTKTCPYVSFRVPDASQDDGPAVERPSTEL
Description: as §1, §2
Fresh blood from male or female volunteers is collected into vacutainers containing no anticoagulants. These subjects have no apparent inflammatory conditions and have not taken any NSAIDs for at least 7 days prior to blood collection. Aliquots of 500 μL are immediately transferred to polypropylene tubes preloaded with 2 μL of DMSO or 2 μL of test compounds. The tubes are vortexed and incubated at 37° C. for 1 h to allow the blood to clot. At the end of the incubation, serum is obtained by centrifugation (3,000 rpm for 10 min at […]). […]

IC50 (COX-2; LPS-stimulated human whole blood, 24 hr, n=6, read-out: IC50 for the inhibition of PGE2 production in a human whole blood assay): 0.22 ± 0.04 µM
COX1/COX2 selectivity (COX-2; in vitro human peripheral blood assay, ratio of COX-1 to COX-2 IC50): 35 fold
IC50 (COX-1): 7.8 ± 2.6 µM
Structure (SMILES): CC(=O)OC/C(=C(\C(=O)OCCCCCCO[N+](=O)[O-])c1ccccc1)c1ccc(S(C)(=O)=O)cc1 [Example 1, 6-(nitrooxy)hexyl (2Z)-4-(acetyloxy)-3-[4-(methylsulfonyl)phenyl]-2-phenylbut-2-enoate]
gastric protection (gastric damage score) (gastric erosions): significant gastric protection
inhibition at 1 mg/kg [1]: 49%
